In patent US20070020193A1, “Dronabinol compositions and methods for using same” (priority 2005, published 2007):
Several values for one entry are separate records, joined by “and”; a condition that tells them apart may be missing. Identical values can stand only once. Entries after “also recorded” stand apart in the source; their conditions may differ. Marks after values point to notes of the source that are not given here.

Experiments:
[1] = Example 2 multiple rising dose inhaled delta-9-THC study: plasma pharmacokinetics; conditions: for AUC(0-t) / AUC(0-inf) / Cmax / half-life / Tmax: human, plasma; for AUC(0-t): AUC(0-8)
Description: A randomized, double-blind, placebo-controlled, multiple rising dose safety, tolerability, pharmacokinetic and pharmacodynamic study to assess two dose levels of inhaled delta-9-THC was conducted. Dose levels were studied in ascending order. Two consecutive groups (n=9/group) of healthy subjects were studied (Groups I and II). […] There was a lapse of at least 10 days between the groups for interim safety and pharmacokinetic analysis. Two dose levels were studied in ascending order. […] Subjects in each treatment Group (I or II) received single and multiple doses of inhaled delta-9-THC according to the following schedule:
For both dose levels, the first and the last dose of study drug was given under fasted conditions. Subjects were confined to the study site from the evening of Day −2 (Day 1 is the day of administration of the first dose of study drug) until the 120-hour blood sample following the final dose of study drug, resulting in an 18-day confinement period for subjects in Group I and a 25-day confinement period for Group II. Between the completion of Group I and the start of Group II, an interim safety and pharmacokinetic analysis was performed. Based on the results of the interim analyses, the dose level for investigation in Group II was determined.
Two MDI dosage strengths were used corresponding to the same formulations used in Example 1: one delivering 0.3 mg delta-9-THC (or placebo) per actuation and one delivering 1.2 mg delta-9-THC (or placebo) per actuation. The MDI consisted of a pressurized (via propellants) container and a metered-dose valve. The propellants provided the necessary force to expel the drug, and also acted as a solvent and diluent. The canister unit was provided within a mouthpiece (oral adapter), to expel an exact amount of drug, in the proper particle size distribution, upon each actuation. Two basic formulations containing 0.3 and 1.2 mg of delta-9-THC per 50 μL were developed with propellant 1,1,1,2 tetrafluoroethane 134a (HFA 134a), and ethanol as solvent. The formulations were made in accordance with the composition used in Example 1.
Whole blood samples were collected according to the assessment flowchart in EDTA tubes through venepuncture or indwelling catheter. Samples were immediately placed on ice and subsequently centrifuged within 30 minutes at 1,500 g for 10 minutes. Plasma was transferred into a 5 ml screw cap polypropylene tube, stoppered and stored at below minus 20° C. until transfer to the analytical laboratory for analysis. […] The measurement ranges were 0.05-30 ng/ml for delta-9-THC, 0.04-30 ng/ml for 11-OH-THC, and 0.25-10 ng/ml for THC-COOH.
For Example 2: The statistical analysis encompassed an exploratory analysis of the single and multiple dose pharmacokinetics and dose proportionality of two dose levels of inhaled delta-9-THC in healthy subjects. Descriptive statistics included number of subjects, mean, standard deviation, coefficient of variation (%) and geometric mean for all pharmacokinetic parameters.
The exploratory analysis was performed on the logarithms of the dose-normalized pharmacokinetic parameters AUC(0-inf), AUC(0-t), AUC(0-τ) and Cmax. Dose proportionality was tested both at single dose and at multiple dose (steady state) by comparing the dose groups for all pharmacokinetic parameters by an analysis of variance with dose as fixed effect.
Dose proportionality was tested by the contrast between the dose groups. For this contrast on the logarithmic scale, p-values were given. After anti-logarithmic transformation, the resultant ratios of geometric means and 90% confidence intervals were given.
Accumulation was tested by comparing the steady state values for AUC(0-τ) with the single dose values for AUC(0-τ) by a mixed model analysis of variance with dose and day (with levels single dose and steady state) as fixed effects and subject within dose as random effect.

healthy subjects = test system: healthy subjects; design: species or system human; conditions: in vivo
[2] = inhaled, 1.2 mg, Arithmetic Mean (SD), 1.2 mg m.d., Day 12, Group I
[3] = inhaled, 1.2 mg, Arithmetic Mean (SD), 1.2 mg s.d., Day 1
[4] = inhaled, 1.2 mg, Geometric Mean (Range), 1.2 mg s.d., Day 1
[5] = inhaled, 3.6 mg, Arithmetic Mean (SD), 3.6 mg m.d., Day 19, Group II
[6] = inhaled, 3.6 mg, Arithmetic Mean (SD), 3.6 mg s.d., Day 1
[7] = inhaled, 3.6 mg, Geometric Mean (Range), 3.6 mg s.d., Day 1

For `CCCCCc1cc(O)c2c(c1)OC(C)(C)[C@@H]1CCC(C)=C[C@@H]21` [delta-9-THC, delta-9-tetrahydrocannabinol], the “achievement of steady state” value ([1]; 1.2 mg delta-9-THC three times daily) was “apparently reached after six days of dosing”, the “accumulation during multiple dosing” value ([1]; 8-hours dosing interval) was “no statistically significant accumulation” and the “Ratio AUC(0-8) m.d./AUC(0-8) s.d. (Accumulation factor), Mean” value ([1]; Group I, 1.2 mg) was 0.85. The “Ratio AUC(0-8) m.d./AUC(0-inf) s.d. (Linearity), Mean” value ([1]; Group I, 1.2 mg) was 0.79, the “Ratio AUC(0-8) m.d./AUC(0-8) s.d. (Accumulation factor), Mean” value ([1]; Group II, 3.6 mg) was 1.15 and the “Ratio AUC(0-8) m.d./AUC(0-inf) s.d. (Linearity), Mean” value ([1]; Group II, 3.6 mg) was 1.02. The “dose proportionality: geometric mean ratio (3.6 mg:1.2 mg) of dose-normalized AUC(0-8) (90% confidence interval)” value ([1]; Multiple dose) was 1.10 (0.55-2.18), the “dose proportionality: geometric mean ratio (3.6 mg:1.2 mg) of dose-normalized Cmax (90% confidence interval)” value ([1]; Multiple dose) was 1.81 (0.52-6.24) and the “dose proportionality: geometric mean ratio (3.6 mg:1.2 mg) of dose-normalized AUC(0-8) (90% confidence interval)” value ([1]; Single dose) was 0.77 (0.50-1.18)*. The “dose proportionality: geometric mean ratio (3.6 mg:1.2 mg) of dose-normalized AUC(0-inf) (90% confidence interval)” value ([1]; Single dose) was 0.79 (0.51-1.23), the “dose proportionality: geometric mean ratio (3.6 mg:1.2 mg) of dose-normalized AUC(0-t) (90% confidence interval)” value ([1]; Single dose) was 0.81 (0.52-1.25) and the “dose proportionality: geometric mean ratio (3.6 mg:1.2 mg) of dose-normalized Cmax (90% confidence interval)” value ([1]; Single dose) was 0.71 (0.38-1.37). For the same compound, the “dose proportionality of pharmacokinetic parameters” value ([1]; after single or multiple dose administration) was “not found to deviate significantly”, the “plasma concentration-time curve, elimination profile” value ([1]; both dose levels) was “at least a bi-phasic elimination profile” and the systemic absorption ([1]; both dose levels, inhaled) was “rapid systemic absorption”. It also gave an AUC(0-t) [1, 2] of 5.74 ng·h/mL, an AUC(0-t) [1, 3] of 6.61 ng·h/mL and an AUC(0-t) ([1]; inhaled, 1.2 mg, Geometric Mean (Range), 1.2 mg m.d., Day 12, Group I) of 4.52 ng·h/mL. It also gave an AUC(0-t) [1, 4] of 6.1 ng·h/mL, an AUC(0-inf) [1, 3] of 7.14 ng·h/mL and an AUC(0-inf) [1, 4] of 6.55 ng·h/mL. It also gave a Cmax [1, 2] of 12.3 ng/mL, a Cmax ([1]; inhaled, 1.2 mg, Arithmetic Mean (SD), 1.2 mg s.d., Day 1, plasma) of 24 ng/mL and a Cmax ([1]; inhaled, 1.2 mg, Geometric Mean (Range), 1.2 mg m.d. (three times daily), Day 12, Group I) of 6.9 ng/mL. The Cmax ([1]; inhaled, 1.2 mg, Geometric Mean (Range), 1.2 mg s.d., Day 1, plasma) was 19.7 ng/mL, the half-life ([1]; inhaled, 1.2 mg, terminal elimination half-life, multiple dosing) was 24 h and the Tmax ([1]; inhaled, 1.2 mg, tmax, Arithmetic Mean (SD), 1.2 mg m.d., Day 12, Group I) was 3.6 min. It also gave a Tmax ([1]; inhaled, 1.2 mg, tmax, Arithmetic Mean (SD), 1.2 mg s.d., Day 1) of 2.4 min, a Tmax ([1]; inhaled, 1.2 mg, tmax, median (range), 1.2 mg m.d., Day 12, Group I) of 3.6 min and a Tmax ([1]; inhaled, 1.2 mg, tmax, median (range), 1.2 mg s.d., Day 1) of 1.8 min. It also gave a half-life ([1]; inhaled, 1.2 mg, t½, Arithmetic Mean (SD), 1.2 mg m.d., Day 12, Group I) of 29.1 h, a half-life ([1]; inhaled, 1.2 mg, t½, Arithmetic Mean (SD), 1.2 mg s.d., Day 1) of 4.02 h and a half-life ([1]; inhaled, 1.2 mg, t½, Geometric Mean (Range), 1.2 mg m.d., Day 12, Group I) of 25.3 h. For the same compound, the half-life ([1]; inhaled, 1.2 mg, t½, Geometric Mean (Range), 1.2 mg s.d., Day 1) was 3.39 h, the AUC(0-t) [1, 5] was 15.8 ng·h/mL and the AUC(0-t) [1, 6] was 14.7 ng·h/mL. For the same compound, the AUC(0-t) ([1]; inhaled, 3.6 mg, Geometric Mean (Range), 3.6 mg m.d., Day 19, Group II) was 14.9 ng·h/mL, the AUC(0-t) [1, 7] was 14 ng·h/mL and the AUC(0-inf) [1, 6] was 16.3 ng·h/mL. The AUC(0-inf) [1, 7] was 15.6 ng·h/mL, the Cmax [1, 5] was 40.4 ng/mL and the Cmax ([1]; inhaled, 3.6 mg, Arithmetic Mean (SD), 3.6 mg s.d., Day 1, plasma) was 44.7 ng/mL. For the same compound, the Cmax ([1]; inhaled, 3.6 mg, Geometric Mean (Range), 3.6 mg m.d. (three times daily), Day 19, Group II) was 37.4 ng/mL, the Cmax ([1]; inhaled, 3.6 mg, Geometric Mean (Range), 3.6 mg s.d., Day 1, plasma) was 42.5 ng/mL and the half-life ([1]; inhaled, 3.6 mg, Terminal elimination half-lives (summary estimate), summary, best estimated after multiple dosing) was about 93 h. The half-life ([1]; inhaled, 3.6 mg, terminal elimination half-life, multiple dosing) was 93 h, the Tmax ([1]; inhaled, 3.6 mg, tmax, Arithmetic Mean (SD), 3.6 mg m.d., Day 19, Group II) was 2.4 min and the Tmax ([1]; inhaled, 3.6 mg, tmax, Arithmetic Mean (SD), 3.6 mg s.d., Day 1) was 4.8 min. The Tmax ([1]; inhaled, 3.6 mg, tmax, median (range), 3.6 mg m.d., Day 19, Group II) was 1.8 min, the Tmax ([1]; inhaled, 3.6 mg, tmax, median (range), 3.6 mg s.d., Day 1) was 4.8 min and the half-life ([1]; inhaled, 3.6 mg, t½, Arithmetic Mean (SD), 3.6 mg m.d., Day 19, Group II) was 94.8 h. The half-life ([1]; inhaled, 3.6 mg, t½, Arithmetic Mean (SD), 3.6 mg s.d., Day 1) was 6.41 h, the half-life ([1]; inhaled, 3.6 mg, t½, Geometric Mean (Range), 3.6 mg m.d., Day 19, Group II) was 92.9 h and the half-life ([1]; inhaled, 3.6 mg, t½, Geometric Mean (Range), 3.6 mg s.d., Day 1) was 6.01 h. For the same compound, the Tmax ([1]; inhaled, Tmax range, both dose levels, after single and multiple dose administration) was 1.8 to 4.8 min, the “ratios of AUC(0-8) after multiple dosing versus AUC(0-inf) after single dose (linearity)” value ([1]; in vivo) was “did not deviate clearly or significantly from unity” and the “Cmax and AUC values versus dose” value ([1]; single and multiple dose administration, 1.2 and 3.6 mg) was “Dose-related increases”. The “Choice Reaction Time against placebo” value (healthy subjects) was “significant decrement; also recorded: significant benefit”, the “Delayed Word Recall Words Correctly Recalled, primary analysis” value (healthy subjects) was “no significant effect of dose” and the “Delayed Word Recognition Sensitivity Index, primary analysis” value (healthy subjects) was “no significant effect of dose”. For the same compound, the “Delayed Word Recognition Speed against placebo” value (healthy subjects) was “benefits”, the “Digit Vigilance Speed, primary analysis” value (healthy subjects) was “no significant effect of dose” and the “Digit Vigilance Targets Detected, baseline score” value (healthy subjects) was 95.6% and 96.7% and 97.4% and 98.5%. The “Immediate Word Recall Words Correctly Recalled, primary analysis” value (healthy subjects) was “no significant effect of dose”, the “Numeric Working Memory Sensitivity Index, primary analysis” value (healthy subjects) was “no significant effect of dose” and the “Numeric Working Memory Speed, primary analysis” value (healthy subjects) was “no significant effect of dose”. For the same compound, the “Picture Recognition Sensitivity Index, primary analysis” value (healthy subjects) was “no significant effect of dose”, the “Picture Recognition Speed, primary analysis” value (healthy subjects) was “no dose*time interaction” and the “Self-rated Alertness, comparisons against placebo” value (healthy subjects) was “no decrements”. The “Self-rated Calmness, primary analysis” value (healthy subjects) was “no significant effect of dose”, the “Self-rated Contentment, comparisons” value (healthy subjects) was “no support for differences between the doses on either day” and the “Simple Reaction Time, comparisons” value (healthy subjects) was “did not show any significant differences”. The “Spatial Working Memory Sensitivity Index against placebo” value (healthy subjects) was “significant decrement”, the “Spatial Working Memory Sensitivity Index, primary analysis” value (healthy subjects) was “significant main effect of dose” and the “Spatial Working Memory Speed, primary analysis” value (healthy subjects) was “no significant effect of dose”. The “Tracking Average Distance from Target, primary analysis” value (healthy subjects) was “no significant effect of dose” and the “cognitive function effects (summary)” value (healthy subjects) was “Minimal cognitive function effects”.
